In the NIST ThermoML archive (doi:10.1007/s10765-014-1740-z):
± gives the expanded uncertainty stated by the source.

Conditions: Crystal; visual observation

Triple point temperature: 537 ± 10 K
SMILES: O=c1cc(-c2ccccc2)oc2cc(O)c(O)c(O)c12 [baicalein]
